Results reported in patent US12065512B2, “Cyclic peptide and a medicament, external preparation and cosmetic comprising said cyclic peptide” (Igisu Co., Ltd., priority 2015, dated 2024).
“Also recorded” adds a separate entry of the source. Positions of bridges follow the written chain, without caps; N, C: chain ends. No end group written: not given here.

Assays:
Assay type in all cases: in vivo, human
[1] = test system: skin, affected site; test: Cyclic peptides with amino acid replacement: effects on skin (formulations A to E = 3, 15, 30, 100, 500 μg/ml in purified water)
Method: Next, cyclic peptides with some replaced amino acid were subjected to following examination in order to confirm their effect. The methods for preparing the above cyclic peptide and confirming amino acid sequence of the prepared peptide were same as the method for preparing the cyclic peptide as described above and Mass spectroscopy method.
9.2 Confirming Effects on Skin
The obtained cyclic peptide was prepared in purified water at 3, 15, 30, 100 or 500 μg/ml and applied to affected site. Each of formulations A to E in the table indicates the concentration of the cyclic peptide at 3, 15, 30, 100 or 500 μg/ml, respectively. The absence of the effect upon the application of purified water without the peptide confirmed the effect was not a placebo effect.

[2] = test system: subjects suffering various dermatitis; test: B ring gel formulation versus gel base by two-sided application in dermatitis; settings: right side B ring, left side gel base; atopic dermatitis or chronic eczema
Source text: 3.2 Comparing B Ring Gel Formulation to Gel Base by Two-Sided Application For subjects suffering various dermatitis, either B ring gel formulation or the gel base was applied to the affected site, and changes in symptoms before and after the application were observed (Table below).

[3] = test system: normal subjects who had symptoms of roughened lips; test: Mucosal condition of roughened lips upon application of B ring gel formulation; settings: 1 application
Method: The B ring gel formulation was applied to normal subjects who had symptoms of roughened lips, and changes in mucosal condition were observed (Table below). The changes in mucosal conditions were determined based on physical sensory evaluation by the subject and our objective observation as physicians.

[4] = test system: skin condition of the subjects; test: Skin condition upon using bath agent comprising B ring; settings: bath in 37 to 41° C. hot water with 0.01 μM, once a day for 14 days
Method: 4.4 Observation on Skin Condition Upon Using Bath Agent Comprising B Ring
Subjects were given bath in 37 to 41° C. hot water comprising B ring dissolved at 0.01 μM (100 ml of 20 μM B ring solution dissolved in 200 L hot water) once a day for 14 days, and skin condition of the subjects was compared to the case of hot water alone (Table 14). The changes in skin conditions were determined based on physical sensory evaluation by the subject and our objective observation as physicians.

[5] = test system: symptoms associated to various alopecia; test: Therapeutic effect on alopecia: gel formulation applied to decalvant site; settings: 1 μmol, 1 application/day, continued; male alopecia, right side
Method: 5. Confirming Therapeutic Effect on Alopecia Either B ring gel formulation or BNP gel formulation was applied, and their effects on symptoms associated to various alopecia were observed (Table below). The changes in symptoms were determined based on physical sensory evaluation by the subject and our objective observation as physicians.

[6] = test system: skin conditions of subjects; test: Skin-improving (cosmetic) effect of gel formulation applied to face
Method: 4.1.1 Confirming Skin-Improving Effect (Comparing B Ring Gel Formulation to BNP Gel Formulation)
The B ring gel formulation or BNP gel formulation was applied to subjects. The B ring gel formulation was applied on the right cheek or eye of each subject, the BNP gel formulation on the left cheek or eye, and changes in skin conditions were observed and compared (Table below). The changes in skin conditions were determined based on physical sensory evaluation by the subject and our objective observation as physicians.
Table below summarizes examples in which B ring gel formulation was applied without applying two-sided. The changes in skin conditions were determined by similar method as described above.
4.1.2 Confirming Skin-Improving Effect (Comparing B Ring Gel Formulation to Gel Base)
In order to examine the presence or absence of the contribution by the gel base to the effects of B ring gel formulation and BNP gel formulation, three subjects were administered B ring gel formulation on their right face and the gel base on the left, and changes in skin conditions on the subject's faces were observed (Table below).

[7] = test system: normal subjects who had symptoms of scalp/hair; test: Scalp/hair condition upon application of B ring gel formulation
Method: 4.3 Observation on scalp/hair condition upon application of B ring gel formulation. The B ring gel formulation was applied to normal subjects who had symptoms of scalp/hair, and changes in conditions of scalp and hair were observed (Table below). The changes in scalp/hair were determined based on physical sensory evaluation by the subject and our objective observation as physicians.

[8] = chronic eczema, formulation C (30 μg/ml in purified water), once a day
[9] = atopic dermatitis, formulation C (30 μg/ml in purified water), once a day
[10] = eczema, formulation C (30 μg/ml in purified water), once a day
[11] = formulation C = 30 μg/ml cyclic peptide in purified water, applied to affected site, one line per subject (ID Q..), diagnosis and treatment as in the table line
[12] = roughened skin, formulation C (30 μg/ml in purified water), once a day

SEQ ID NO 64 (CFSRKMDRISSSTGIGC; disulfide 1-17)
Diagnostic impression on skin after application [1, 8]: Immediately after application, erythema

SEQ ID NO 43 (CFGRKMDRISSSTGLGC; disulfide 1-17)
Diagnostic impression on skin after application [1, 9]: After 2 minutes, no discomfort, felt
Itches after application [1, 9]: After 3 minutes,
Diagnostic impression on skin after application [1, 10]: After 1 minute, redness and infiltration
Itches after application [1, 10]: Iches were eliminated
Diagnostic impression on skin after application ([1]; rosacae/acne, formulation C (30 μg/ml in purified water), once a day): After 7 minutes, acne was reduce and
Diagnostic impression on skin after application ([1]; roughened lips, formulation C (30 μg/ml in purified water), once a day): 1 minute after application, dry skin
Diagnostic impression on skin after application ([1]; roughened skin, formulation B (15 μg/ml in purified water), once a day): After 3 minutes, redness and dry skin

SEQ ID NO 60 (CFSRRMDRISSSTGLGC; disulfide 1-17)
Diagnostic impression on skin after application [1, 8]: Immediately after application, erythema

SEQ ID NO 63 (CFSRKMDRISSTSGIGC; disulfide 1-17)
Diagnostic impression on skin after application ([1]; eczema, formulation B (15 μg/ml in purified water), once a day): After 3 minutes, erythema and scales

SEQ ID NO 42 (CFGRKMDRISSASGLGC; disulfide 1-17)
Diagnostic impression on skin after application ([1]; acne, formulation C (30 μg/ml in purified water), once a day): After 1 minute, redness was remitted.
Itches after application ([1]; atopic dermatitis, formulation B (15 μg/ml in purified water), once a day): Iches were eliminated
Diagnostic impression on skin after application [1, 10]: After 3 minutes, erythema and dry skin

SEQ ID NO 18 (CFGHKMDRISSSSGLGC; disulfide 1-17)
Diagnostic impression on skin after application [1, 11]: After 2 minutes, redness was remitted.

SEQ ID NO 74 (CFSRRMDRISSSTGLAC; disulfide 1-17)
Diagnostic impression on skin after application ([1]; chronic eczema, formulation D (100 μg/ml in purified water), once a day): Iches were eliminated immediately after
Diagnostic impression on skin after application [1, 12]: After 1 minute, rawness and hot flash

SEQ ID NO 65 (CFSRKMDRISSSTGLAC; disulfide 1-17)
Diagnostic impression on skin after application [1, 12]: After 1 minute, skin got moisturized and

SEQ ID NO 26 (CFGRKMDRISSVSGLGC; disulfide 1-17)
Diagnostic impression on skin after application [1, 11]: After 2 minutes, remitted.

SEQ ID NO 70 (CFGRRMDRISSSTGLAC; disulfide 1-17)
Diagnostic impression on skin after application [1, 8]: immediately after application, erythema
Diagnostic impression on skin after application [1, 12]: Redness vanished in 30 seconds. After 1

SEQ ID NO 68 (CFGRRMDRISSTSGLAC; disulfide 1-17)
Diagnostic impression on skin after application [1, 8]: Immediately after application, erythema

SEQ ID NO 49 (CFSRKMDRISSSSGLAC; disulfide 1-17)
Diagnostic impression on skin after application [1, 8]: Immediately after application, erythema

SEQ ID NO 61 (CFSRRMDRISSSSGIGC; disulfide 1-17)
Diagnostic impression on skin after application ([1]; chronic, formulation C (30 μg/ml in purified water), once a day): Immediately after application, erythema

SEQ ID NO 58 (CFGRKMDRISSSSGIAC; disulfide 1-17)
Diagnostic impression on skin after application [1, 10]: After 2 minutes, erythema, scales,

Cys-Phe-Gly-Arg-Lys-Met-Asp-Arg-Ile-Ser-Ser-Ser-Ser-Gly-Leu-Gly-Cys (CFGRKMDRISSSSGLGC; disulfide 1-17; ends not checked) [B ring]
Post-application symptoms [2]: Flare remitted soon after application. After; also recorded: Flare started to fade soon after application,; also recorded: Flare remitted soon after application,; also recorded: Flare and pigmentation removed 2.5 min after
Post-application symptoms (lips, mucosal condition) ([3]; 0.5 μmol): 3 min after application, lips became moisturized.
Post-application symptoms (lips, mucosal condition) ([3]; 1 μmol): 2 min after application, cracks on mouth corner were remitted and Skin became moisturized soon after application. After 2 min,
Post-application symptoms (lips, mucosal condition) ([3]; 2 μmol): After 2 min, lips were full and soft, and wrinkles were less; also recorded: After 2 min, lips were full, soft and moisturized, and wrinkles
Changes in subjective symptoms [4]: Remission of itch and pain; also recorded: Relief of pain; also recorded: Itches after bath was remitted
Post-application symptoms [4]: ameliorating effect on miliaria, cracked or chapped skin; also recorded: Remission of desiccatinn; also recorded: Remission of flare and milaria; also recorded: Cracks gradually became; also recorded: Gradual remission of erythema
Post-application symptoms (alopecia) [5]: 7 weeks after application, hair became elastic and formulation exhibited more remarkable hair-
Skin-improving effect, summary ([6]; compared to site where BNP gel formulation had been applied, FIG. 1): has a skin moisturizing effect and is capable of improving skin texture
Post-application symptoms (skin condition) ([6]; concentration not printed (about 1 μM), right face, gel base on the left): 1 min after application, skin tingling sensation
Post-application symptoms (scalp/hair) ([7]; 1 μmol, 1 application/day (5 days, 3 weeks or continued), daily for 3 weeks): Hair growth was stimulated, and an increase in hair volume
Post-application symptoms (scalp/hair) ([7]; 1 μmol, 1 application/day (5 days, 3 weeks or continued), daily for 5 days): A decrease in falling hair was observed, showing an effect
Post-application symptoms (scalp/hair) ([7]; 1 μmol, 1 application/day (5 days, 3 weeks or continued), daily, continued post partum): growth was stimulated, improving thinning of hair.
Post-application symptoms (scalp/hair) ([7]; 2 μmol, 1 application): After 2 min, itches were removed, scalp seborrhea and; also recorded: After 1 min. itches were removed. After 2 min, scalp; also recorded: After 2 min, itches were removed, scalp seborrhea was improved

Ser-Pro-Lys-Met-Val-Gln-Gly-Ser-Gly-Cys-Phe-Gly-Arg-Lys-Met-Asp-Arg-Ile-Ser-Ser-Ser-Ser-Gly-Le u-Gly-Cys-Lys-Val-Leu-Arg-Arg-His [BNP, reference compound]
Changes in subjective symptoms [4]: No subjective remission of skin
Post-application symptoms [4]: No remission of skin desiccation

SEQ ID NO 75 (CFSRRMDRISSSSGIAC; disulfide 1-17)
Diagnostic impression on skin after application [1, 10]: After 2 minutes, erythema, scalesm

SEQ ID NO 47 (CFSRKMDRISSSTGLGC; disulfide 1-17)
Diagnostic impression on skin after application [1, 8]: Immediately after application, erythema

SEQ ID NO 73 (CFSRRMDRISSSTGIGC; disulfide 1-17)
Diagnostic impression on skin after application [1, 8]: Immdediately after application, erythema

SEQ ID NO 53 (CFGRRMDRISSSSGLAC; disulfide 1-17)
Diagnostic impression on skin after application [1, 10]: After 1 minute, erythema and infiltration

SEQ ID NO 44 (CFGRKMDRISSSAGLGC; disulfide 1-17)
Diagnostic impression on skin after application [1, 10]: After 1 minute, erythema and infiltration
Itches after application [1, 10]: Iches were remitted
Diagnostic impression on skin after application ([1]; healthy skin, formulation B (15 μg/ml in purified water), once a day): Skin got moisturized promptly, wrinkles

SEQ ID NO 72 (CFSRRMDRISSTSGLAC; disulfide 1-17)
Diagnostic impression on skin after application [1, 8]: Immediately after application, erythema,

SEQ ID NO 69 (CFGRRMDRISSSTGIGC; disulfide 1-17)
Diagnostic impression on skin after application [1, 10]: After 2 minutes, erythema, scales,

SEQ ID NO 39 (CFSRKMDRISSSSGLGC; disulfide 1-17)
Diagnostic impression on skin after application [1, 11]: After 3 minutes, nodes were flattened.

SEQ ID NO 16 (CFVRKMDRISSSSGLGC; disulfide 1-17)
Diagnostic impression on skin after application [1, 11]: After 3 minutes, erythema was remitted.
